Here are results for 1 compound from publication PMC10372924, “The Jasmine (Jasminum sambac) Genome Provides Insight into the Biosynthesis of Flower Fragrances and Jasmonates” (Genomics, Proteomics & Bioinformatics, 2022).

This test has as its target T1, JsTPS3 (GST-JsTPS3) (Jasminum sambac, UniProt A0A8T9EC85).
T1 construct: gene TPS3; full-length CDS in pGEX-6p-1, N-terminal GST tag kept, E. coli Rosetta (DE3), ~98 kDa with tag
T1 sequence (A0A8T9EC85 1-540): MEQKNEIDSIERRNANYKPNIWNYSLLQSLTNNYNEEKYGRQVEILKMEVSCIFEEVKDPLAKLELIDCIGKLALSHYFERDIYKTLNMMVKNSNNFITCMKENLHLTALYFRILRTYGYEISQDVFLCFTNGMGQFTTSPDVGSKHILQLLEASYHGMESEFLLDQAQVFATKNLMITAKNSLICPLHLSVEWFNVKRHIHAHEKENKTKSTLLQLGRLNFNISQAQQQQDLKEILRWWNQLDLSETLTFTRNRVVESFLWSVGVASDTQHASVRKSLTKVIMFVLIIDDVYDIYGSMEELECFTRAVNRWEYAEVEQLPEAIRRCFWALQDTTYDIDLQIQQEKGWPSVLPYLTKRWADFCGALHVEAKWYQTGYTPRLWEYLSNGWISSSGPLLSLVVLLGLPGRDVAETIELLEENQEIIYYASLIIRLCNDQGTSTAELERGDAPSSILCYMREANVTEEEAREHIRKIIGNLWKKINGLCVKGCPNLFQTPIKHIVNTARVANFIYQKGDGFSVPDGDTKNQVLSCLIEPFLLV
Put plainly: GC-Orbitrap MS detection of trans-beta-ocimene and beta-ocimene formed. The note with it: 60 uM GPP; 30 mM HEPES pH 7.5, 5 mM DTT, 25 mM MgCl2; 30 °C 1 h, then 45 °C 15 min; 10 or 15 ug enzyme in 1 ml. Type of test: biochemical.

For the compound `CC(C)=CCC/C(C)=C/COP(=O)(O)OP(=O)(O)O` [GPP, geranyl pyrophosphate], the “GC-Orbitrap MS detection of trans-beta-ocimene and beta-ocimene formed” value was “recombinant JsTPS3 protein exerts TPS activity by catalyzing GPP into trans-β-ocimene and β-ocimene”.
